Test results from patent publication US9701670B2, “Pyrazolyl-ureas as kinase inhibitors” (RESPIVERT LIMITED, priority 2013, dated 2017).

Key:
[1] = system: Salmonella typhimurium, strains TA98 and TA100; assay: Mutagenicity assessment (bacterial reverse mutation screen); assay type: cell-based; conditions: TA98 and TA100, presence or absence of S-9 mix, up to 5000 μg/plate
Procedure: Studies were conducted by Sequani (Ledbury, Herefordshire, UK) to assess the compound of Example 77 in vitro for its ability to induce mutations in two histidine dependent auxotrophic mutants of Salmonella typhimurium, strains TA98 and TA100.
The mutation screen was conducted using the plate incorporation method and was performed in both the presence and absence of S-9 mix (a liver post-mitochondrial fraction derived from the livers of Aroclor 1254 treated rats). The bacteria were exposed to the compound of Example 77 dissolved in dimethylsulphoxide, which solvent was also used as the negative control. The dose levels used were 0.32, 1.6, 8, 40, 200, 1000 or 5000 μg/plate.

[2] = Pharmacokinetics, plasma and total colon tissue distribution in rats; assay type: in vivo, male Wistar rats; conditions: Rat
Procedure: A study was conducted by Sai Life Sciences (Hinjewadi, Pune, India) to investigate the pharmacokinetics, as well as plasma and total colon tissue distribution of the compound of Example 77 in male Wistar rats following a single intravenous or oral administration.
30 male Wistar rats were divided into two groups: Group I (p.o.: 5 mg/kg; 27 rats) and Group II (i.v.: 0.25 mg/kg; 3 rats). Animals in Group I were administered orally with an aqueous suspension formulation (having 2% HPMC and 0.5% Tween 80) of the compound of Example 77, at a dose of 5 mg/kg. Animals in Group II were administered intravenously with a solution formulation (in 5% v/v DMSO, 7.5% w/v Solutol HS 15 and 87.5% saline (0.9% w/v NaCl)) of the compound of Example 77 at a dose of 0.25 mg/kg. From each rat, blood samples (approximately 120 μL) were collected from retro orbital plexus such that samples were obtained at pre-dose, 0.05, 0.13, 0.25, 0.5, 1, 2, 4, 8, and 24 hr (i.v.) and pre-dose, 0.5, 1, 2, 4, 6, 8, 12 and 24 hr (p.o.). Immediately after collection, plasma was harvested from blood by centrifugation and stored at −70° C. until analysis. Following collection of blood sample, the animals (Group I) were humanely euthanized by carbon dioxide asphyxiation. The total colon was isolated, flushed with cold phosphate buffer saline (pH 7.4) to remove contents and weighed. The total colon tissues homogenized with ice-cold phosphate buffered saline, pH 7.4. Buffer volume to be used for homogenization was twice the weight of tissue. All the samples were stored below −70° C. until bioanalysis. Total colon tissue homogenate volume was three times. Plasma and total colon tissue samples were quantified by LC-MS/MS method (LLOQ in plasma and total colon tissue=0.5 ng/mL)

[3] = Hepatic microsomal stability; assay type: in vitro ADME, human
Procedure: (§1) • Microsomal stability assays were performed with incubations of test compounds at 0.1 μM (n=2, final DMSO concentration 0.25%), and carried out using pooled human, dog and rat hepatic microsomes from Xenotech (Lots 1210153, 0810143 and 1110042, respectively) at 0.25 mg protein/mL in the presence of co-factor, NADPH. The incubations were performed at 37° C. with 100 μL aliquots taken from the incubation, at 0, 2, 5, 10 and 20 minutes and reactions terminated by addition of 100 μL of acetonitrile containing carbamazepine as analytical internal standard. […] Half-life values were calculated from the relationship T1/2(min)=−0.693/λ • where λ was the slope of the Ln concentration vs time curve. • The in vitro intrinsic clearance, CIint (mL/min/kg), was calculated and scaled to hepatic extraction ratios using the following scaling parameters and formulae.
(§2) Formulae CIint(tissue clearance) mL/min/kg=[0.693/t½(min)]×[1/microsomal protein concentration mg/mL]×[mg microsomes/g liver]×[g liver/kg body weight] […] The incubations were performed at 37° C. with 100 μL samples taken from the incubation, at 0, 10, 20, 45 and 90 minutes, and reactions terminated by addition of 100 μL of acetonitrile containing carbamazepine as analytical internal standard. […] Half-life values were calculated from the relationship T1/2(min)=−0.693/λ • where λ was the slope of the Ln concentration vs time curve. • Standard compounds testosterone, midazolam and 4-methylumbelliferone are included in the assay design.

[4] = Pharmacokinetics and total colon tissue distribution in mice; assay type: in vivo, male C57BL/6 mice; conditions: male, Mouse, 5 mg/kg p.o.
Procedure: Studies were conducted by Sai Life Sciences (Hinjewadi, Pune, India) to investigate the pharmacokinetics and total colon tissue distribution of the compound of Example 77 in male C57BL/6 mice following a single oral administration.
A group of twenty one male mice were dosed with a suspension formulation (in peanut oil) of the compound of Example 77, at a dose of 5 mg/kg. Blood samples (approximately 60 μL) were collected from retro orbital plexus such that the samples were obtained at 1, 2, 4, 6, 8, 12 and 24 hr. The blood samples were collected from a set of three mice at each time point in labelled micro centrifuge tube containing K2EDTA as anticoagulant. Plasma samples were separated by centrifugation at 4000 rpm for 10 min of whole blood and stored below −70° C. until bioanalysis. After collection of blood sample, animals were humanely euthanized by carbon dioxide asphyxiation to collect total colon tissues. The colons were flushed with cold phosphate buffer saline (pH 7.4) to remove contents. The total colon tissues were homogenized with cold phosphate buffer saline (pH 7.4) of twice the weight of colon tissue and stored below −70° C. Total volume was three times the total colon tissue weights. All samples were processed for analysis by protein precipitation using acetonitrile and analyzed with developed LC-MS/MS method (LLOQ: 2.02 ng/mL in plasma and 1.01 ng/mL in colon tissue). Pharmacokinetic parameters were calculated using the non-compartmental analysis tool of Phoenix WinNonlin® software (version 6.3).

[5] = Hepatic microsomal stability; assay type: in vitro ADME; conditions: scaled from intrinsic clearance, mean of two experiments
Procedure: as §1, §2

[6] = male, Wistar, plasma, intravenous 0.25 mg/kg
[7] = male, Wistar, po, 5 mg/kg p.o., Plasma
[8] = male, Wistar, total colon tissue, po, 5 mg/kg p.o., Total colon
[9] = C57BL/6, total colon tissue, po, Total colon

Which results are given for `C#Cc1cc(Nc2nccc(Oc3ccc(NC(=O)Nc4cc(C(C)(C)C)nn4-c4ccc(OC)cc4)c4ccccc34)n2)cc(C(=O)NCCN2CCOCC2)c1` [Example 77, 3-((4-((4-(3-(3-(tert-Butyl)-1-(4-methoxyphenyl)-1H-pyrazol-5-yl)ureido)-naphthalen-1-yl)oxy)pyrimidin-2-yl)amino)-5-ethynyl-N-(2-morpholinoethyl)benzamide]?
ability to induce mutations (revertant colonies) [1]: no dose-related or statistically significant increases in revertant colonies; Fpo ([2]; 5 mg/kg p.o., Plasma): 0.1%; AUC(0-inf) [2, 6]: 1190 ng·h/mL; AUC(0-t) [2, 6]: 1180 ng·h/mL; C0 [2, 6]: 4030 ng/mL; Vd [2, 6]: 0.1 L/kg; clearance [2, 6]: 3.5 mL/min/kg; half-life [2, 6]: 0.8 h; AUC(0-inf) [2, 7]: 17.5 ng·h/mL; AUC(0-t) [2, 7]: 17.5 ng·h/mL; Cmax [2, 7]: 2.5 ng/mL; Tmax [2, 7]: 6 h; AUC(0-inf) [2, 8]: 20700 ng·h/mL; AUC(0-t) [2, 8]: 20500 ng·h/mL; Cmax [2, 8]: 2500 ng/mL; Tmax [2, 8]: 4 h; hepatic clearance ([3]; conclusion from Tables 9a and 9b (hepatic microsomes and hepatocytes)): high hepatic clearance; Mean hepatic extraction ratio (Eh) ([3]; human hepatic microsomes, scaled from intrinsic clearance, mean of two experiments): 0.94; AUC(0-inf) ([4]; C57BL/6, po, Plasma): 29 ng·h/mL; AUC(0-t) ([4]; C57BL/6, po, Plasma): 22 ng·h/mL; Cmax ([4]; C57BL/6, po, Plasma): 3.5 ng/mL; Tmax ([4]; C57BL/6, po, Plasma): 1 h; AUC(0-inf) [4, 9]: 9280 ng·h/mL; AUC(0-t) [4, 9]: 7480 ng·h/mL; Cmax [4, 9]: 1070 ng/mL; Tmax [4, 9]: 4 h; Mean hepatic extraction ratio (Eh) ([5]; dog hepatic microsomes): 0.94; Mean hepatic extraction ratio (Eh) ([5]; rat hepatic microsomes): 0.82
